Laboratory results reported in PMC11714696 (2024).

What was measured:
[1] = tested on: poly(A·U) (RNA, polymer) A/U; assay: absorption titration, Benesi-Hildebrand; settings: Na+ (25 mM NaCl, 10 mM sodium cacodylate); 10 mM cacodylate pH 7.0, 0.1 mM Na2EDTA; RNA concentration by ε260 14280; per base
[2] = tested on: poly(I·C) (RNA, polymer, inosine (hypoxanthine base) at every position of strand 1 (written as G)) G/C; assay: absorption titration, Benesi-Hildebrand; settings: Na+ (25 mM NaCl, 10 mM sodium cacodylate); 10 mM cacodylate pH 7.0, 0.1 mM Na2EDTA; RNA concentration by ε260 10000; per base
[3] = tested on: poly(I·C) (RNA, polymer, inosine (hypoxanthine base) at every position of strand 1 (written as G)) G/C; assay: fluorescence titration, Benesi-Hildebrand; settings: Na+ (25 mM NaCl, 10 mM sodium cacodylate); 10 mM cacodylate pH 7.0, 0.1 mM Na2EDTA; RNA concentration by ε260 10000; per base
[4] = tested on: poly(A·U) (RNA, polymer) A/U; assay: fluorescence titration, Benesi-Hildebrand; settings: Na+ (25 mM NaCl, 10 mM sodium cacodylate); 10 mM cacodylate pH 7.0, 0.1 mM Na2EDTA; RNA concentration by ε260 14280; per base
[5] = tested on: poly(I·C) (RNA, polymer, inosine (hypoxanthine base) at every position of strand 1 (written as G)) G/C; assay: UV melting at 260 nm; settings: Na+ (25 mM NaCl, 10 mM sodium cacodylate); 10 mM cacodylate pH 7.0; 10 and 15 μM Nile blue; free Tm about 48.0 °C
[6] = tested on: poly(A·U) (RNA, polymer) A/U; assay: UV melting at 260 nm; settings: Na+ (25 mM NaCl, 10 mM sodium cacodylate); 10 mM cacodylate pH 7.0; 10 and 15 μM Nile blue; free Tm about 46.0 °C

KBH [1]: 586000 M⁻¹
KBH [2]: 116000 M⁻¹
KBH [3]: 113000 M⁻¹
KBH [4]: 211000 M⁻¹
binding [5]: yes
binding [6]: yes
SMILES: CC[N+](CC)=c1ccc2nc3c(cc(N)c4ccccc43)oc-2c1
